Results reported in the NIST ThermoML archive (doi:10.1016/j.jct.2012.03.016).
Where “and” joins values, the source holds several entries; their conditions need not be identical. Equal values may be shown once. Numbers after ± are expanded uncertainties.

How the values were obtained:
[1] = Liquid, Closed cell (Static) method
[2] = excess molar enthalpy (molar enthalpy of mixing); xn = mol fraction of the nth substance listed; settings: 303.15 K, 101.3 kPa, Liquid, Calvet calorimetry

COC(C)(C)C [2-methoxy-2-methylpropane]
[1]
Settings	vapor or sublimation pressure [kPa]
263.15 K	6.245 ± 0.13
263.53 K	6.4 ± 0.1
273.15 K	10.67 ± 0.22
273.34 K	10.8 ± 0.2
283.15 K	17.41 ± 0.35
283.27 K	17.6 ± 0.4
293.15 K	27.25 ± 0.55
293.25 K	27.4 ± 0.6
303.15 K	41.16 ± 0.83
303.22 K	41.2 ± 0.8
313.15 K	60.22 ± 1.2
313.24 K	60.3 ± 1.2
323.15 K	85.65 ± 1.7
323.21 K	85.8 ± 1.7
333.15 K	118.78 ± 2.4
333.19 K	119.2 ± 2.4

CCCCOC [butyl methyl ether]
[1]
Settings	vapor or sublimation pressure
262.99 K	3.2 ± 0.1 kPa
263.15 K	3.194 ± 0.065 kPa
273.04 K	5.7 ± 0.1 kPa
273.15 K	5.704 ± 0.12 kPa
283.07 K	9.6 ± 0.2 kPa
283.15 K	9.688 ± 0.2 kPa
293.1 K	15.6 ± 0.3 kPa
293.15 K	15.74 ± 0.32 kPa
303.12 K	24.4 ± 0.5 kPa
303.15 K	24.61 ± 0.5 kPa
313.15 K	37.17 ± 0.75 kPa
313.16 K	36.8 ± 0.7 kPa and 36.9 ± 0.7 kPa
323.15 K	54.46 ± 1.1 kPa
323.2 K	54 ± 1.1 kPa
333.15 K	77.64 ± 1.7 kPa
333.25 K	74.1 ± 1.6 kPa

CCCCOC [butyl methyl ether] + C=CCCCC
[2]
Settings	excess molar enthalpy [kcal/mol]
x2 = 0.0997	0.0055 ± 0.00239
x2 = 0.1966	0.011 ± 0.00239
x2 = 0.2897	0.0152 ± 0.00239
x2 = 0.3935	0.0193 ± 0.00239
x2 = 0.4933	0.0214 ± 0.00239
x2 = 0.5922	0.0217 ± 0.00239
x2 = 0.694	0.0205 ± 0.00239
x2 = 0.7912	0.0169 ± 0.00239
x2 = 0.8863	0.0105 ± 0.00239

C=CCCCC [hex-1-ene]
[1]
Settings	vapor or sublimation pressure [kPa]
263.15 K	4.46 ± 0.09
263.45 K	4.5 ± 0.1
273.15 K	7.716 ± 0.16
273.32 K	7.7 ± 0.2
283.15 K	12.71 ± 0.26
283.24 K	12.8 ± 0.3
293.15 K	20.08 ± 0.4
293.22 K	20.1 ± 0.4
303.15 K	30.54 ± 0.61
303.22 K	30.6 ± 0.6
313.15 K	44.96 ± 0.9
313.2 K	45 ± 0.9
323.15 K	64.28 ± 1.3
323.19 K	64.4 ± 1.3
333.15 K	89.55 ± 1.8
333.23 K	89.7 ± 1.8

C=CCCCC [hex-1-ene] + COC(C)(C)C
[2]
Settings	excess molar enthalpy [kcal/mol]
x1 = 0.1491	0.0209 ± 0.00239
x1 = 0.2162	0.0271 ± 0.00239
x1 = 0.3039	0.033 ± 0.00239
x1 = 0.4052	0.0369 ± 0.00239
x1 = 0.4892	0.0384 ± 0.00239
x1 = 0.6174	0.0379 ± 0.00239
x1 = 0.7128	0.0343 ± 0.00239
x1 = 0.788	0.0295 ± 0.00239
x1 = 0.8837	0.0198 ± 0.00239
